Activity calls are given as the source filed them. The rule behind the calls is not given here.
Assays:
Leishmania donovani [1] = assay: Antileishmanial activity against promastigote stage of Leishmania donovani MHOM/IN/80/Dd8 harboring luciferase reporter gene at 100 uM after 48 hrs by Steady-Glo luminescence assay relative to control; assay type: functional; details: MHOM/IN/80/Dd8, 48 h
[2] = Cytotoxicity against African green monkey Vero cells assessed as cell viability at 100 uM by MTT assay relative to control; assay type: cell-based; details: chlorocebus sabaeus, read-out: Activity
[3] = Stability in simulated gastric fluid at 10 ug/ml measured after 2 hrs by UPLC analysis relative to control; assay type: ADME; details: read-out: Stability
[4] = Intrinsic clearance in mouse liver microsomes after 1 hr in presence of NADPH by UPLC analysis; assay type: ADME, Microsome
[5] = Cytotoxicity against African green monkey Vero cells assessed as cell viability at 25 uM by MTT assay relative to control; assay type: cell-based; details: chlorocebus sabaeus, read-out: Activity
Leishmania donovani [6] = assay: Antileishmanial activity against promastigote stage of Leishmania donovani MHOM/IN/80/Dd8 harboring luciferase reporter gene at 50 uM after 48 hrs by Steady-Glo luminescence assay relative to control; assay type: functional; details: for inhibition at 50 µM: MHOM/IN/80/Dd8, 48 h
[7] = Stability in mouse plasma at 10 ug/ml measured after 2 hrs by UPLC analysis relative to control; assay type: ADME, cell-free; details: read-out: Stability
Leishmania donovani [8] = assay: Antileishmanial activity against Leishmania donovani MHOM/IN/80/Dd8 amastigotes harboring luciferase reporter gene infected in mouse J774 cells at 25 uM after 72 hrs by Steady-Glo luminescence assay relative to control; assay type: functional; details: for inhibition at 25 µM: MHOM/IN/80/Dd8, J774, 72 h
Leishmania donovani [9] = assay: Antileishmanial activity against Leishmania donovani MHOM/IN/80/Dd8 amastigotes harboring luciferase reporter gene infected in mouse J774 cells at 50 uM after 72 hrs by Steady-Glo luminescence assay relative to control; assay type: functional; details: MHOM/IN/80/Dd8, J774, 72 h
[10] = Half life in mouse liver microsomes after 1 hr in presence of NADPH by UPLC analysis; assay type: ADME, Microsome
[11] = Cytotoxicity against African green monkey Vero cells assessed as cell viability at 50 uM by MTT assay relative to control; assay type: cell-based; details: chlorocebus sabaeus, read-out: Activity
Leishmania donovani [12] = assay: Antileishmanial activity against promastigote stage of Leishmania donovani MHOM/IN/80/Dd8 harboring luciferase reporter gene at 25 uM after 48 hrs by Steady-Glo luminescence assay relative to control; assay type: functional; details: for inhibition at 25 µM: MHOM/IN/80/Dd8, 48 h
Leishmania donovani [13] = assay: Antileishmanial activity against Leishmania donovani MHOM/IN/80/Dd8 amastigotes harboring luciferase reporter gene infected in mouse J774 cells at 100 uM after 72 hrs by Steady-Glo luminescence assay relative to control; assay type: functional; details: MHOM/IN/80/Dd8, J774, 72 h
[14] = Stability in mouse liver microsomes assessed as compound remaining after 1 hr in presence of NADPH by UPLC analysis; assay type: ADME, Microsome; details: read-out: Stability
[15] = Stability in simulated intestinal fluid at 10 ug/ml measured after 2 hrs by UPLC analysis relative to control; assay type: ADME; details: read-out: Stability
Leishmania donovani [16] = assay: Induction of mitochondrial dysfunction in Leishmania donovani promastigotes assessed as reduction in mitochondrial membrane potential at 50 uM after 15 mins by JC-1 staining-based flow cytometric analysis (reference value: 7.73%); assay type: functional; design: scale not given: the % may be the effect or the level left
Leishmania donovani [17] = assay: Inhibition of ubiquinol cytochrome c reductase in Leishmania donovani promastigotes mitochondria at 2 uM using decylubiquinol as substrate in presence of cytochrome c relative to control
Leishmania donovani [18] = assay: Inhibition of succinate-ubiquinone oxidoreductase in Leishmania donovani promastigotes mitochondria using succinate as substrate in presence fo DCPIP by photometry analysis relative to control; details: concentration not given here

For `CCOC(=O)C(C(=O)c1ccc(OC)cc1)C(NC(C)=O)c1cc(OC)ccc1Br` (configuration not stated), the inhibition at 100 µM (Leishmania donovani [1]) was 81.2%, the viability at 100 µM [2] was 90.7% and the remaining at 2 h, 10 ug/ml [3] was 71.1%. For the same molecule, the CLH [4] was 5 µL/min/mg, the viability at 25 µM [5] was 96.3% and the inhibition at 50 µM (Leishmania donovani [6]) was 80.3%. For the same molecule, the remaining at 2 h, 10 ug/ml [7] was 6.97%, the inhibition at 25 µM (Leishmania donovani [8]) was 58.2% and the inhibition at 50 µM (Leishmania donovani [9]) was 62.3%. The half-life [10] was 1.55 h, the viability at 50 µM [11] was 93.3% and the inhibition at 25 µM (Leishmania donovani [12]) was 68%. It also gave an inhibition at 100 µM (Leishmania donovani [13]) of 64.2%, a remaining at 1 h [14] of 57.8% and a remaining at 2 h, 10 ug/ml [15] of 69.6%.

`N#CC(C#N)=NNc1cccc(Cl)c1` [CARBONYL CYANIDE M-CHLOROPHENYLHYDRAZONE] gave an Activity (Leishmania donovani [16]) of 94.26%.

Work on `CCCCCCC1C(=O)O[C@H](C)[C@H](NC(=O)c2cccc(NC=O)c2O)C(=O)O[C@@H](C)[C@@H]1OC(=O)CC(C)C` (some centres not stated) yielded an inhibition (Leishmania donovani [17]) greater than 93%.

For `CSc1ccc(C(=O)/C(=C/c2cccnc2)c2ccc(Cl)c(Cl)c2)cc1`, the inhibition at 100 µM (Leishmania donovani [1]) was 83.2%, the viability at 100 µM [2] was 88.6% and the viability at 25 µM [5] was 95.7%. It also gave an inhibition at 50 µM (Leishmania donovani [6]) of 80.4%, an inhibition at 25 µM (Leishmania donovani [8]) of 34.3% and an inhibition at 50 µM (Leishmania donovani [9]) of 59.3%. The viability at 50 µM [11] was 89.6%, the inhibition at 25 µM (Leishmania donovani [12]) was 46.7% and the inhibition at 100 µM (Leishmania donovani [13]) was 62.1%.

`CSc1ccc(C(=O)C(c2ccc(Cl)c(Cl)c2)C(NC(=O)c2ccc(C)cc2)c2cc3ccccc3s2)cc1` (configuration not stated) showed an inhibition at 100 µM (Leishmania donovani [1]) of 24.2%, a viability at 100 µM [2] of 90.2% and a viability at 25 µM [5] of 95.3%. It also gave an inhibition at 50 µM (Leishmania donovani [6]) of 22.4%, an inhibition at 25 µM (Leishmania donovani [8]) of 9.2% and an inhibition at 50 µM (Leishmania donovani [9]) of 17.6%. The viability at 50 µM [11] was 92.3%, the inhibition at 25 µM (Leishmania donovani [12]) was 20.1% and the inhibition at 100 µM (Leishmania donovani [13]) was 21%.

`CSc1ccc(C(=O)/C(=C/c2cc3ccccc3s2)c2ccc(Cl)c(Cl)c2)cc1` showed an inhibition at 100 µM (Leishmania donovani [1]) of 72.1%, a viability at 100 µM [2] of 87% and a viability at 25 µM [5] of 93.4%. The inhibition at 50 µM (Leishmania donovani [6]) was 70.3%, the inhibition (Leishmania donovani [8]) was “inactive” and the inhibition at 50 µM (Leishmania donovani [9]) was 2.6%. The viability at 50 µM [11] was 91.6%, the inhibition at 25 µM (Leishmania donovani [12]) was 62.1% and the inhibition at 100 µM (Leishmania donovani [13]) was 2.8%.

`CCOC(=O)C(C(=O)c1ccc(OC)cc1)C(NC(C)=O)c1ccc(C(C)C)cc1` (configuration not stated) gave an inhibition at 100 µM (Leishmania donovani [1]) of 34%, a viability at 100 µM [2] of 90.4% and a viability at 25 µM [5] of 98.8%. For the same molecule, the inhibition at 50 µM (Leishmania donovani [6]) was 33.5%, the inhibition at 25 µM (Leishmania donovani [8]) was 29.4% and the inhibition at 50 µM (Leishmania donovani [9]) was 44.4%. The viability at 50 µM [11] was 96.5%, the inhibition at 25 µM (Leishmania donovani [12]) was 30.8% and the inhibition at 100 µM (Leishmania donovani [13]) was 55.3%.

For `O=C(CC(=O)C(F)(F)F)c1ccco1`, the inhibition (Leishmania donovani [18]) was greater than 84%.

Molecule `CSc1ccc(C(=O)C(c2ccc(Cl)c(Cl)c2)C(NC(=O)c2ccc(C)cc2)c2cccc3ccccc23)cc1` (configuration not stated) has an inhibition at 100 µM (Leishmania donovani [1]) of 12.5%, a viability at 100 µM [2] of 88.6% and a viability at 25 µM [5] of 90.5%. For the same molecule, the inhibition (Leishmania donovani [6]) was “inactive”, the inhibition at 25 µM (Leishmania donovani [8]) was 14.3% and the inhibition at 50 µM (Leishmania donovani [9]) was 23.8%. The viability at 50 µM [11] was 89.6%, the inhibition (Leishmania donovani [12]) was “inactive” and the inhibition at 100 µM (Leishmania donovani [13]) was 25.9%.

For `CSc1ccc(C(=O)C(c2ccc(Cl)c(Cl)c2)C(NC(=O)c2cccc(C)c2)c2cccc3ccccc23)cc1` (configuration not stated), the inhibition at 100 µM (Leishmania donovani [1]) was 36.9%, the viability at 100 µM [2] was 87.6% and the viability at 25 µM [5] was 95.8%. For the same molecule, the inhibition at 50 µM (Leishmania donovani [6]) was 36.4%, the inhibition at 25 µM (Leishmania donovani [8]) was 5.9% and the inhibition at 50 µM (Leishmania donovani [9]) was 14.5%. For the same molecule, the viability at 50 µM [11] was 90.7%, the inhibition at 25 µM (Leishmania donovani [12]) was 27.2% and the inhibition at 100 µM (Leishmania donovani [13]) was 19.3%.

From ChEMBL document CHEMBL4406843, “β-Amino acid derivatives as mitochondrial complex III inhibitors of L. donovani: A promising chemotype targeting visceral leishmaniasis” (Eur J Med Chem, 2019)
